This note sets out measurements from patent US12187713B2, “Immunomodulators, compositions and methods thereof” (Betta Pharmaceuticals Co., Ltd, priority 2019, dated 2025).

Chain of PD-1/PD-L1 (Q9NZQ7 19-238): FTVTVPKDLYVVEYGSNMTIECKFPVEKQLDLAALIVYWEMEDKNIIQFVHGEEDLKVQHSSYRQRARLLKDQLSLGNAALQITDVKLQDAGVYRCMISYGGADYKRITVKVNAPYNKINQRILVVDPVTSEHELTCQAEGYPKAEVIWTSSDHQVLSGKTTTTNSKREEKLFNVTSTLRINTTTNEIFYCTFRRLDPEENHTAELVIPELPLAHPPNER

One assay has as its target PD-1/PD-L1 (Homo sapiens (Human), UniProt Q9NZQ7). The assay is described as follows: PD-1/PD-L1 Binding Assay (Alphascreen). Conditions: numeric values. As for the experimental part:
PD-1/PD-L1 Binding Assay (Alphascreen)
The assays were conducted in a standard black 384-well polystyrene plate with a final volume of 20 μL. Inhibitors were first serially diluted in DMSO and then added to the plate wells before the addition of other reaction components. The final concentration of DMSO in the assay was […]. Add 100 nL/well of compound to the 384 reaction plate (6008280, PerkinElmer) with Echo and centrifuge at 1000 rpm for 1 minute. Add 5 μL/well 4×PD-L1 solutions to the 384 reaction plate, centrifuge at 1000 rpm for 1 minute, and add 5 μL/well 4×PD-1 solutions, centrifuge at 1000 rpm for 1 minute, and incubate at 25° C. for 15 minutes. The concentrations of the compounds were 300, 100, 33.33, 11.11, 3.70, 1.23, 0.41, 0.137, 0.046, 0.015, 0 nM, respectively. Add 10 μL/well 2× Anti-6×His AlphaLISA Acceptor beads and Streptavidin Donor beads solution (PerkinElmer-AL356F) to the above 384 reaction plate, centrifuge at 1000 rpm for 1 minute, and incubate at 25° C. in the dark for 120 minutes. Read the AlphaLISA signal value using the Envision Reader. IC50 determination was performed by fitting the curve of percent control activity versus the log of the inhibitor concentration using the GraphPad Prism 8.0 software.
For orientation: Bead proximity is the source of the signal in Alpha formats.
Turning to `Cc1c(-c2nc3c(o2)CCN(CCO)C3)cccc1-c1cccc(-c2nc3cc(CN4CCC[C@H]4C(=O)O)c(OC(F)F)cc3o2)c1C` [Example 206, ((6-(difluoromethoxy)-2-(3′-(5-(2-hydroxyethyl)-4,5,6,7-tetrahydrooxazolo[4,5-c]pyridin-2-yl)-2,2′-dimethyl-[1,1′-biphenyl]-3-yl)benzo[d]oxazol-5-yl)methyl)-L-proline], the IC50 – broadly, the point on the concentration scale where inhibition reaches its midpoint – is 1.4 nM.

For the molecule `Cc1c(-c2nc3cc(CN4CC(C)(O)C4)c(OC(F)F)cc3o2)cccc1-c1cccc(-c2nc3cc(CN4CCC[C@H]4C(=O)O)c(OC(F)F)cc3o2)c1C` [Example 44, ((6-(difluoromethoxy)-2-(3′-(6-(difluoromethoxy)-5-((3-hydroxy-3-methylazetidin-1-yl)methyl)benzo[d]oxazol-2-yl)-2,2′-dimethyl-[1,1′-biphenyl]-3-yl)benzo[d]oxazol-5-yl)methyl)-L-proline], the IC50 was determined as 1.1 nM.

Still in this assay, the particulars now being: range symbols.
For the molecule `Cc1c(-c2ccc(CN3CCCC3)c(Cl)c2)cccc1-c1cccc(-c2nc3cc(CN4CCC[C@H]4C(=O)O)c(OC(F)F)cc3o2)c1C` [Example 219, ((2-(3″-chloro-2,2′-dimethyl-4″-(pyrrolidin-1-ylmethyl)-[1,1′:3′,1″-terphenyl]-3-yl)-6-(difluoromethoxy)benzo[d]oxazol-5-yl)methyl)proline], the IC50 is 0.1 to 5 nM.

`Cc1c(-c2ccc3c(c2)CN(CCC(=O)O)C3)cccc1-c1cccc(-c2nc3cc(CN4CCC[C@H]4C(=O)O)c(OC(F)F)cc3o2)c1C` [Example 290, ((2-(3′-(2-(2-carboxyethyl)isoindolin-5-yl)-2,2′-dimethyl-[1,1′-biphenyl]-3-yl)-6-(difluoromethoxy)benzo[d]oxazol-5-yl)methyl)-L-proline] gave a concentration for half-maximal inhibition (IC50) of 0.1 to 5 nM.

`Cc1c(-c2nc3cc(CN4CCC[C@H]4C(=O)O)c(OC(F)F)cc3o2)cccc1-c1cccc(N2CCC(NCC3(CO)CC3)CC2)c1C` [Example 307, ((6-(difluoromethoxy)-2-(3′-(4-(((1-(hydroxymethyl)cyclopropyl)methyl)amino)piperidin-1-yl)-2,2′-dimethyl-[1,1′-biphenyl]-3-yl)benzo[d]oxazol-5-yl)methyl)-L-proline] gave an IC50 of 0.1 to 5 nM.

Molecule `Cc1c(-c2cnc(CN3CCCC3)cn2)cccc1-c1cccc(-c2nc3cc(CN4CCC[C@H]4C(=O)O)c(OC(F)F)cc3o2)c1C` [Example 284, ((6-(difluoromethoxy)-2-(2,2′-dimethyl-3′-(5-(pyrrolidin-1-ylmethyl)pyrazin-2-yl)-[1,1′-biphenyl]-3-yl)benzo[d]oxazol-5-yl)methyl)-L-proline] gave an IC50 of 5 to 50 nM.

`Cc1c(-c2nc3cc(CN4CCC[C@H]4C(=O)O)c(OC(F)F)cc3o2)cccc1-c1cccc(-c2cnc(CN3CCCC3)c(F)c2)c1C(F)F` [Example 268, ((6-(difluoromethoxy)-2-(2′-(difluoromethyl)-3′-(5-fluoro-6-(pyrrolidin-1-ylmethyl)pyridin-3-yl)-2-methyl-[1,1′-biphenyl]-3-yl)benzo[d]oxazol-5-yl)methyl)-L-proline] returned an IC50 of 0.1 to 5 nM.

Regarding `Cc1c(-c2nc3cc(CN4CCC[C@@H]4C(=O)O)c(OC(F)F)cc3o2)cccc1-c1cccc(-c2ccc(CN3CCCC3)cc2F)c1Cl` [Example 224, ((2-(2′-chloro-2″-fluoro-2-methyl-4″- (pyrrolidin-1-ylmethyl)-[1,1′:3′,1″-terphenyl]-3-yl)-6-(difluoromethoxy)benzo[d]oxazol-5-yl)methyl)-D-proline], the IC50 lay in the range of 0.1 to 5 nM.

`Cc1c(-c2nc3c(o2)CCN(Cc2cccnc2)C3)cccc1-c1cccc(-c2nc3cc(CN4CCC[C@H]4C(=O)O)c(OC(F)F)cc3o2)c1C` [Example 194, ((6-(difluoromethoxy)-2-(2,2′-dimethyl-3′-(5-(pyridin-3-ylmethyl)-4,5,6,7-tetrahydrooxazolo[4,5-c]pyridin-2-yl)-[1,1′-biphenyl]-3-yl)benzo[d]oxazol-5-yl)methyl)proline] yielded an IC50 of 5 to 50 nM.
